Data: patent US12606557B2, “Substituted indoles with inhibitory activity” (UNIVERSITY OF PITTSBURGH—OF THE COMMONWEALTH SYSTEM OF …, priority 2020, dated 2026)
“And” between values parts separate entries of the source, which are not always exact repeats. Equal values may be shown once. Read-outs that look alike come from different tables or passages of the source. Marks after values point to notes of the source that are not given here.

Columns and labels:
[1] = system: gentamicin-induced AKI in zebrafish larvae; experiment: Gentamicin-induced AKI in zebrafish larvae (zfAKI assay), Kaplan-Meier survival; assay type: in vivo; settings: two different doses, compared to the untreated control
Description: The gentamicin-induced AKI in zebrafish larvae (zfAKI assay), recapitulates injury and proliferation-based repair in mammalian AKI, but allows for higher throughput analysis of compound efficacy in AKI than mouse models. As fish are soaked in compounds, this assay is not subject to drug delivery and absorption problems that occur in early drug discovery in mice. This assay was used as a primary screening assay with the throughput being increased.

[2] = Plasma pharmacokinetics after a single intraperitoneal dose; assay type: in vivo, male CD1 mice; settings: for plasma concentrations quantifiable up to: LLOQ 10.38 ng/mL; for concentration at 0.08 hr / concentration at 0.25 hr / concentration at 0.5 hr / concentration at 1 hr / concentration at 2 hr / concentration at 4 hr / concentration at 8 hr / concentration at 24 hr: intraperitoneal
Method: The objective of this example was to investigate the plasma pharmacokinetics of UPHH-000171 following a single intraperitoneal dose administration to male CD1 mice at 10 and 50 mg/kg. Eighteen male mice were divided in to two groups with nine animals in each group,
Animals in Group 1 and Group 2 were administered with solution formulation of UPHH-000171 in 5% NMP, 25% Solutol HS-15 and 70% normal saline intraperitoneally at 10 and 50 mg/kg dose, respectively.
The blood samples were collected from set of three mice at each time point in labeled micro centrifuge tube containing K2EDTA solution as anticoagulant at Pre-dose, 0.08, 0.25, 0.5, 1, 2, 4, 8 and 24 hr. Plasma samples were separated by centrifugation of whole blood and stored below −70±10° C. until bioanalysis. All samples were processed for analysis by protein precipitation using acetonitrile and analyzed with fit-for-purpose LC-MS/MS method (LLOQ=10.38 ng/mL). Pharmacokinetic parameters were calculated using the non-compartmental analysis tool of Phoenix WinNonlin® (Version 7.0). Mean pharmacokinetic parameters are summarized below: […]

HDAC8 = molecular target: T1, HDAC8 (Homo sapiens, UniProt Q9BY41); experiment: Cellular thermal shift assay (CETSA) for HDAC8 binding; settings: compared to a control with no compound, FIG. 1
T1 construct: CETSA uses cell lysates heated to different temperatures and quantifies the target protein in the soluble fraction by western blot; endogenous in cells; host or cells: cell lysate
T1 sequence (Q9BY41 1-377): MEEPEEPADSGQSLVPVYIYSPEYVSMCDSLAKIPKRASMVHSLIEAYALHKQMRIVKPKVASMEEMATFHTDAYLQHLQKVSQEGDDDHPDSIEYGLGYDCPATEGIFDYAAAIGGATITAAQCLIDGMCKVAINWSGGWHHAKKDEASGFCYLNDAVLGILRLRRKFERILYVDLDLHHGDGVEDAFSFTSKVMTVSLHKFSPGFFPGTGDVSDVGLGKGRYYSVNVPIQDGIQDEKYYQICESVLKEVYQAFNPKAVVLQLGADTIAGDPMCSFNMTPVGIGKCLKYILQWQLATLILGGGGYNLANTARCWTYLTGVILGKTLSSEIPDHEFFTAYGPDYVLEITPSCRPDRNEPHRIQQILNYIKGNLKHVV
Description: Cellular thermal shift assay (CETSA) was developed from the same principles of ligand induced thermal stability assays (TSA) of proteins. During TSA, purified proteins are heated in the absence or presence of ligand and then quickly cooled. Proteins that are bound to ligand are more thermally stable than their unbound counterparts, and these “thermal shifts” can be detected by various methods. CETSA uses cell lysates heated to different temperatures and quantifies the target protein in the soluble fraction by western blot. CETSA is a direct measurement of […] through the measurement of the biophysical properties that stabilized the protein-ligand complex under thermal denaturation. The UPHH-00171 compound was tested in the CETSA assay, specifically for HDAC8 binding.

[3] = male, CD1, mouse, 10 mg/kg IP, plasma
[4] = male, CD1, mouse, 50 mg/kg IP, plasma

## COc1ccc(Cn2ccc3ccc(C(=O)NS(C)(=O)=O)cc32)cc1 [UPHH-000171, 1-(4-methoxybenzyl)-N-(methylsulfonyl)-1H-indole-6-carboxamide]
[1]
  survival in zfAKI assay: increase survival
[2]; 10 mg/kg IP, 0.08 hr
  Plasma Concentration, individual animal: 9871.25 ng/mL and 2877.79 ng/mL and 7508.44 ng/mL
[2]; 10 mg/kg IP, 0.25 hr
  Plasma Concentration, individual animal: 28861.97 ng/mL and 28672.95 ng/mL
[2]; 10 mg/kg IP, 0.5 hr
  Plasma Concentration, individual animal: 41628.22 ng/mL and 36468.73 ng/mL
[2]; 10 mg/kg IP, 1 hr
  Plasma Concentration, individual animal: 49594.52 ng/mL and 19264.72 ng/mL and 34912.30 ng/mL
[2]; 10 mg/kg IP, 2 hr
  Plasma Concentration, individual animal: 46853.15 ng/mL and 43408.40 ng/mL
[2]; 10 mg/kg IP, 4 hr
  Plasma Concentration, individual animal: 47512.89 ng/mL and 73497.85 ng/mL and 31815.34 ng/mL
[2]; 10 mg/kg IP, 8 hr
  Plasma Concentration, individual animal: 20138.85 ng/mL and 29805.54 ng/mL
[2]; 10 mg/kg IP, 24 hr, animal 7 excluded as an outlier
  Plasma Concentration, individual animal: 2930.59^e ng/mL and 131.01 ng/mL and 68.44 ng/mL
[2]; 10 mg/kg IP
  plasma concentrations quantifiable up to: up to 24 hr
[2]; 50 mg/kg IP, 0.08 hr
  Plasma Concentration, individual animal: 59305.08 ng/mL and 90638.28 ng/mL
[2]; 50 mg/kg IP, 0.25 hr
  Plasma Concentration, individual animal: 31701.46 ng/mL and 171000.65 ng/mL and 182938.71 ng/mL
[2]; 50 mg/kg IP, 0.5 hr
  Plasma Concentration, individual animal: 137922.52 ng/mL and 96505.03 ng/mL and 47522.98 ng/mL
[2]; 50 mg/kg IP, 1 hr
  Plasma Concentration, individual animal: 218799.23 ng/mL and 236020.35 ng/mL
[2]; 50 mg/kg IP, 2 hr
  Plasma Concentration, individual animal: 93162.33 ng/mL and 195094.83 ng/mL and 235858.27 ng/mL
[2]; 50 mg/kg IP, 4 hr
  Plasma Concentration, individual animal: 106201.99 ng/mL and 115510.21 ng/mL
[2]; 50 mg/kg IP, 8 hr
  Plasma Concentration, individual animal: 93195.14 ng/mL and 75070.05 ng/mL
[2]; 50 mg/kg IP, 24 hr
  Plasma Concentration, individual animal: 1407.79 ng/mL and 391.49 ng/mL and 1081.42 ng/mL
[2]; 50 mg/kg IP
  plasma concentrations quantifiable up to: up to 24 hr
[2]; from 10 mg/kg to 50 mg/kg IP
  dose related increase in plasma exposure (AUClast): 3 fold
[2]; male, CD1, mouse, plasma, 10 mg/kg, 10 mg/kg IP, 0.08 hr, read-out: Plasma Concentration, Mean
  concentration at 0.08 hr: 6.75 µg/mL
[2]; male, CD1, mouse, plasma, 10 mg/kg, 10 mg/kg IP, 0.25 hr, read-out: Plasma Concentration, Mean
  concentration at 0.25 hr: 30.2 µg/mL
[2]; male, CD1, mouse, plasma, 10 mg/kg, 10 mg/kg IP, 0.25 hr, read-out: Plasma Concentration, individual animal
  concentration at 0.25 hr: 33 µg/mL
[2]; male, CD1, mouse, plasma, 10 mg/kg, 10 mg/kg IP, 0.5 hr, read-out: Plasma Concentration, Mean
  concentration at 0.5 hr: 41.2 µg/mL
[2]; male, CD1, mouse, plasma, 10 mg/kg, 10 mg/kg IP, 0.5 hr, read-out: Plasma Concentration, individual animal
  concentration at 0.5 hr: 45.6 µg/mL
[2]; male, CD1, mouse, plasma, 10 mg/kg, 10 mg/kg IP, 1 hr, read-out: Plasma Concentration, Mean
  concentration at 1 hr: 34.6 µg/mL
[2]; male, CD1, mouse, plasma, 10 mg/kg, 10 mg/kg IP, 2 hr, read-out: Plasma Concentration, Mean
  concentration at 2 hr: 47.9 µg/mL
[2]; male, CD1, mouse, plasma, 10 mg/kg, 10 mg/kg IP, 2 hr, read-out: Plasma Concentration, individual animal
  concentration at 2 hr: 53.6 µg/mL
[2]; male, CD1, mouse, plasma, 10 mg/kg, 10 mg/kg IP, 4 hr, read-out: Plasma Concentration, Mean
  concentration at 4 hr: 50.9 µg/mL
[2]; male, CD1, mouse, plasma, 10 mg/kg, 10 mg/kg IP, 8 hr, read-out: Plasma Concentration, Mean
  concentration at 8 hr: 28.4 µg/mL
[2]; male, CD1, mouse, plasma, 10 mg/kg, 10 mg/kg IP, 8 hr, read-out: Plasma Concentration, individual animal
  concentration at 8 hr: 35.1 µg/mL
[2]; male, CD1, mouse, plasma, 10 mg/kg, 10 mg/kg IP, 24 hr, average of two values
  concentration at 24 hr: 0.0997 µg/mL
[2]; male, CD1, mouse, plasma, 50 mg/kg, 50 mg/kg IP, 0.08 hr, read-out: Plasma Concentration, Mean
  concentration at 0.08 hr: 79.6 µg/mL
[2]; male, CD1, mouse, plasma, 50 mg/kg, 50 mg/kg IP, 0.08 hr, read-out: Plasma Concentration, individual animal
  concentration at 0.08 hr: 89 µg/mL
[2]; male, CD1, mouse, plasma, 50 mg/kg, 50 mg/kg IP, 0.25 hr, read-out: Plasma Concentration, Mean
  concentration at 0.25 hr: 129 µg/mL
[2]; male, CD1, mouse, plasma, 50 mg/kg, 50 mg/kg IP, 0.5 hr, read-out: Plasma Concentration, Mean
  concentration at 0.5 hr: 94 µg/mL
[2]; male, CD1, mouse, plasma, 50 mg/kg, 50 mg/kg IP, 1 hr, read-out: Plasma Concentration, Mean
  concentration at 1 hr: 228 µg/mL
[2]; male, CD1, mouse, plasma, 50 mg/kg, 50 mg/kg IP, 1 hr, read-out: Plasma Concentration, individual animal
  concentration at 1 hr: 229 µg/mL
[2]; male, CD1, mouse, plasma, 50 mg/kg, 50 mg/kg IP, 2 hr, read-out: Plasma Concentration, Mean
  concentration at 2 hr: 175 µg/mL
[2]; male, CD1, mouse, plasma, 50 mg/kg, 50 mg/kg IP, 4 hr, read-out: Plasma Concentration, Mean
  concentration at 4 hr: 116 µg/mL
[2]; male, CD1, mouse, plasma, 50 mg/kg, 50 mg/kg IP, 4 hr, read-out: Plasma Concentration, individual animal
  concentration at 4 hr: 128 µg/mL
[2]; male, CD1, mouse, plasma, 50 mg/kg, 50 mg/kg IP, 8 hr, read-out: Plasma Concentration, Mean
  concentration at 8 hr: 90.1 µg/mL
[2]; male, CD1, mouse, plasma, 50 mg/kg, 50 mg/kg IP, 8 hr, read-out: Plasma Concentration, individual animal
  concentration at 8 hr: 102 µg/mL
[2]; male, CD1, mouse, plasma, 50 mg/kg, 50 mg/kg IP, 24 hr
  concentration at 24 hr: 0.96 µg/mL
[2]; [3]
  AUC(0-t): 558 µg·h/mL
  Cmax: 50.9 µg/mL
  Tmax: 4 h
[2]; [4]
  AUC(0-inf): 1770 µg·h/mL
  AUC(0-t): 1760 µg·h/mL
  Cmax: 228 µg/mL
  Tmax: 1 h
HDAC8; listed as UPHH171
  thermal stability of HDAC8 in CETSA: increased thermal stability
HDAC8; listed as UPHH-00171
  thermal stability of HDAC8 in CETSA: increase in thermal stability
